# In ChEMBL document CHEMBL3112450, “Synthesis and in vitro antitumor evaluation of primary amine substituted quinazoline linked benzimidazole” (Bioorg Med Chem Lett, 2014):
# What was measured:
# Assay type in all cases: functional
# HCT-15 [1] = test: Cytotoxicity against human HCT15 cells assessed as cell growth at 10^-6 M after 48 hrs by SRB assay; conditions: HCT-15, 48 h, read-out: Activity
# DU-145 = test: Cytotoxicity against human DU145 cells assessed as cell growth at 10^-8 M after 48 hrs by SRB assay; conditions: DU-145, 48 h, read-out: Activity
# SK-MEL-28 = test: Cytotoxicity against human SK-MEL-28 cells assessed as cell growth at 10^-7 M after 48 hrs by SRB assay; conditions: SK-MEL-28, 48 h, read-out: Activity
# SN12C [2] = test: Cytotoxicity against human SN12C cells assessed as cell growth at 10^-4 M after 48 hrs by SRB assay; conditions: read-out: Activity
# [3] = Cytotoxicity against human UO31 cells assessed as cell growth at 10^-8 M after 48 hrs by SRB assay; conditions: UO-31, 48 h, read-out: Activity
# U-251 [4] = test: Cytotoxicity against human U251 cells assessed as cell growth at 10^-7 M after 48 hrs by SRB assay; conditions: U-251, 48 h, read-out: Activity
# MCF7 = test: Cytotoxicity against human MCF7 cells assessed as cell growth at 10^-4 M after 48 hrs by SRB assay; conditions: MCF7, 48 h, read-out: Activity
# NCI-H23 [5] = test: Cytotoxicity against human NCI-H23 cells assessed as cell growth at 10^-6 M after 48 hrs by SRB assay; conditions: NCI-H23, 48 h, read-out: Activity
# PC-3 = test: Cytotoxicity against human PC3 cells assessed as cell growth at 10^-4 M after 48 hrs by SRB assay; conditions: PC-3, 48 h, read-out: Activity
# HOP-92 = test: Cytotoxicity against human HOP92 cells assessed as cell growth at 10^-7 M after 48 hrs by SRB assay; conditions: HOP-92, 48 h, read-out: Activity
# SK-MEL-2 = test: Cytotoxicity against human SK-MEL-2 cells assessed as cell growth at 10^-8 M after 48 hrs by SRB assay; conditions: SK-MEL-2, 48 h, read-out: Activity
# COLO 205 = test: Cytotoxicity against human COLO205 cells assessed as cell growth at 10^-7 M after 48 hrs by SRB assay; conditions: COLO 205, 48 h, read-out: Activity
# SK-OV-3 = test: Cytotoxicity against human SKOV3 cells assessed as cell growth at 10^-4 M after 48 hrs by SRB assay; conditions: SK-OV-3, 48 h, read-out: Activity
# MDA-MB-468 = test: Cytotoxicity against human MDA-MB-468 cells after 48 hrs by SRB assay; conditions: MDA-MB-468, 48 h
# NCI-H522 = test: Cytotoxicity against human NCI-H522 cells assessed as cell growth at 10^-6 M after 48 hrs by SRB assay; conditions: NCI-H522, 48 h, read-out: Activity
# UACC-62 = test: Cytotoxicity against human UACC62 cells assessed as cell growth at 10^-8 M after 48 hrs by SRB assay; conditions: UACC-62, 48 h, read-out: Activity
# NCI-H322M [6] = test: Cytotoxicity against human NCI-H322M cells assessed as cell growth at 10^-6 M after 48 hrs by SRB assay; conditions: read-out: Activity
# SK-MEL-5 = test: Cytotoxicity against human SK-MEL-5 cells assessed as cell growth at 10^-7 M after 48 hrs by SRB assay; conditions: SK-MEL-5, 48 h, read-out: Activity
# Malme-3M = test: Cytotoxicity against human MALME-3M cells after 48 hrs by SRB assay
# M14 = test: Cytotoxicity against human M14 cells assessed as cell growth at 10^-8 M after 48 hrs by SRB assay; conditions: M14, 48 h, read-out: Activity
# SN12C [7] = test: Cytotoxicity against human SN12C cells assessed as cell growth at 10^-7 M after 48 hrs by SRB assay; conditions: read-out: Activity
# [8] = Cytotoxicity against human OVCAR4 cells after 48 hrs by SRB assay; conditions: OVCAR-4, 48 h
# SF-539 = test: Cytotoxicity against human SF539 cells assessed as cell growth at 10^-8 M after 48 hrs by SRB assay; conditions: SF-539, 48 h, read-out: Activity
# SR = test: Cytotoxicity against human SR cells assessed as cell growth at 10^-4 M after 48 hrs by SRB assay; conditions: read-out: Activity
# NCI-H23 [9] = test: Cytotoxicity against human NCI-H23 cells assessed as cell growth at 10^-4 M after 48 hrs by SRB assay; conditions: NCI-H23, 48 h, read-out: Activity
# MDA-MB-435 = test: Cytotoxicity against human MDA-MB-435 cells assessed as cell growth at 10^-4 M after 48 hrs by SRB assay; conditions: MDA-MB-435, 48 h, read-out: Activity
# SNB-19 = test: Cytotoxicity against human SNB19 cells after 48 hrs by SRB assay; conditions: SNB-19, 48 h
# K562 = test: Cytotoxicity against human K562 cells assessed as cell growth at 10^-7 M after 48 hrs by SRB assay; conditions: K562, 48 h, read-out: Activity
# SF-268 = test: Cytotoxicity against human SF268 cells assessed as cell growth at 10^-7 M after 48 hrs by SRB assay; conditions: SF-268, 48 h, read-out: Activity
# MDA-MB-231 = test: Cytotoxicity against human MDA-MB-231 cells assessed as cell growth at 10^-8 M after 48 hrs by SRB assay; conditions: MDA-MB-231, 48 h, read-out: Activity
# [10] = Cytotoxicity against human NCI-ADR-RES cells assessed as cell growth at 10^-6 M after 48 hrs by SRB assay; conditions: read-out: Activity
# HCT-15 [11] = test: Cytotoxicity against human HCT15 cells assessed as cell growth at 10^-7 M after 48 hrs by SRB assay; conditions: HCT-15, 48 h, read-out: Activity
# [12] = Cytotoxicity against human UO31 cells assessed as cell growth at 10^-4 M after 48 hrs by SRB assay; conditions: UO-31, 48 h, read-out: Activity
# HCT-116 = test: Cytotoxicity against human HCT116 cells assessed as cell growth at 10^-4 M after 48 hrs by SRB assay; conditions: HCT-116, 48 h, read-out: Activity
# NCI-H322M [13] = test: Cytotoxicity against human NCI-H322M cells after 48 hrs by SRB assay
# CAKI-1 = test: Cytotoxicity against human Caki1 cells after 48 hrs by SRB assay; conditions: CAKI-1, 48 h
# U-251 [14] = test: Cytotoxicity against human U251 cells after 48 hrs by SRB assay; conditions: U-251, 48 h
# A498 = test: Cytotoxicity against human A498 cells assessed as cell growth at 10^-8 M after 48 hrs by SRB assay; conditions: A498, 48 h, read-out: Activity
# [15] = read-out: LC50 (the source's name)
compound,measurement,setting,value
C=CCn1c(C)nc2cc(Nc3nc(Nc4ccc5nc(C)n(CC=C)c5c4)c4ccccc4n3)ccc21,growth at 1 µM,HCT-15 [1],12%
same,growth at 0.01 µM,DU-145,99%
same,growth at 0.1 µM,SK-MEL-28,106%
same,growth at 100 µM,SN12C [2],-22%
same,growth at 0.01 µM,[3],85%
same,growth at 0.1 µM,U-251 [4],95%
same,growth at 100 µM,MCF7,3%
same,growth at 1 µM,NCI-H23 [5],100%
same,growth at 100 µM,PC-3,-41%
same,growth at 0.1 µM,HOP-92,91%
same,growth at 0.01 µM,SK-MEL-2,96%
same,growth at 0.1 µM,COLO 205,101%
same,growth at 100 µM,SK-OV-3,-29%
same,GI50,MDA-MB-468,216 nM
same,LC50 (concentration killing 50% of cells),MDA-MB-468,> 100 µM
same,TGI,MDA-MB-468,578 nM
same,growth at 1 µM,NCI-H522,-83%
same,growth at 0.01 µM,UACC-62,97%
same,growth at 1 µM,NCI-H322M [6],43%
same,growth at 0.1 µM,SK-MEL-5,94%
same,GI50,Malme-3M,2.27 µM
same,TGI,Malme-3M,4.1 µM
same,growth at 0.01 µM,M14,100%
same,growth at 0.1 µM,SN12C [7],92%
same,GI50,[8],276 nM
same,TGI,[8],0.73 µM
same,growth at 0.01 µM,SF-539,96%
same,growth at 100 µM,SR,2%
same,growth at 100 µM,NCI-H23 [9],-28%
same,growth at 100 µM,MDA-MB-435,-30%
same,GI50,SNB-19,1.08 µM
same,TGI,SNB-19,2.62 µM
same,growth at 0.1 µM,K562,99%
same,growth at 0.1 µM,SF-268,91%
same,growth at 0.01 µM,MDA-MB-231,111%
same,growth at 1 µM,[10],85%
same,growth at 0.1 µM,HCT-15 [11],96%
same,growth at 100 µM,[12],-56%
same,growth at 100 µM,HCT-116,3%
same,GI50,NCI-H322M [13],0.717 µM
same,LC50,NCI-H322M [13],4.47 µM
same,TGI,NCI-H322M [13],2 µM
same,GI50,CAKI-1,1.61 µM
same,LC50 (concentration causing 50% net cell kill),CAKI-1,5.69 µM
same,TGI,CAKI-1,3.03 µM
same,GI50,U-251 [14],177 nM
same,TGI,U-251 [14],0.331 µM
same,growth at 0.01 µM,A498,101%
C=CCn1c(C)nc2ccc(Nc3nc(Nc4ccc(F)cc4)nc4ccccc34)cc21,growth at 1 µM,HCT-15 [1],91%
same,growth at 0.01 µM,DU-145,100%
same,growth at 0.1 µM,SK-MEL-28,102%
same,growth at 100 µM,SN12C [2],-49%
same,growth at 0.01 µM,[3],87%
same,growth at 0.1 µM,U-251 [4],92%
same,growth at 100 µM,MCF7,-37%
same,growth at 1 µM,NCI-H23 [5],88%
same,growth at 100 µM,PC-3,-79%
same,growth at 0.1 µM,HOP-92,80%
same,growth at 0.01 µM,SK-MEL-2,98%
same,growth at 0.1 µM,COLO 205,103%
same,growth at 100 µM,SK-OV-3,-37%
same,GI50,MDA-MB-468,1230 nM
same,TGI,MDA-MB-468,2600 nM
same,growth at 1 µM,NCI-H522,91%
same,growth at 0.01 µM,UACC-62,99%
same,growth at 1 µM,NCI-H322M [6],85%
same,growth at 0.1 µM,SK-MEL-5,93%
same,GI50,Malme-3M,13.1 µM
same,LC50,Malme-3M,97.3 µM
same,TGI,Malme-3M,35.7 µM
same,growth at 0.01 µM,M14,93%
same,growth at 0.1 µM,SN12C [7],96%
same,GI50,[8],2060 nM
same,LC50,[8],> 100 µM
same,TGI,[8],5.81 µM
same,growth at 0.01 µM,SF-539,99%
same,growth at 100 µM,SR,-22%
same,growth at 100 µM,NCI-H23 [9],-39%
same,growth at 100 µM,MDA-MB-435,-53%
same,GI50,SNB-19,9 µM
same,TGI,SNB-19,23.8 µM
same,CC50,SNB-19; [15],58.6 µM
same,growth at 0.1 µM,K562,103%
same,growth at 0.1 µM,SF-268,90%
same,growth at 0.01 µM,MDA-MB-231,99%
same,growth at 1 µM,[10],96%
same,growth at 0.1 µM,HCT-15 [11],101%
same,growth at 100 µM,[12],-82%
same,growth at 100 µM,HCT-116,-77%
same,GI50,NCI-H322M [13],6.16 µM
same,LC50,NCI-H322M [13],55.1 µM
same,TGI,NCI-H322M [13],21.5 µM
same,GI50,CAKI-1,6.86 µM
same,LC50 (concentration causing 50% net cell kill),CAKI-1,92.6 µM
same,TGI,CAKI-1,27.5 µM
same,GI50,U-251 [14],3150 nM
same,TGI,U-251 [14],14.9 µM
same,CC50,U-251 [14]; [15],48.9 µM
same,growth at 0.01 µM,A498,81%
